Measurements as given in patent US8771973B2, “Methods for treating bleeding disorders using sulfated polysaccharides” (Baxter Healthcare S.A., priority 2004, dated 2014).

Tests used:
TFPI [1] = biological target: T1, TFPI (Homo sapiens, UniProt P10646); assay: dPT assay, inhibition of TFPI activity in Hem-A plasma without preincubation; assay type: biochemical; settings: no preincubation; for clotting time, dPT: Hem-A + TFPI, HemA + TFPI 183, alone 45 seconds
T1 construct: purchased American Diagnostica (Stamford, Conn.)
T1 sequence (P10646 29-304): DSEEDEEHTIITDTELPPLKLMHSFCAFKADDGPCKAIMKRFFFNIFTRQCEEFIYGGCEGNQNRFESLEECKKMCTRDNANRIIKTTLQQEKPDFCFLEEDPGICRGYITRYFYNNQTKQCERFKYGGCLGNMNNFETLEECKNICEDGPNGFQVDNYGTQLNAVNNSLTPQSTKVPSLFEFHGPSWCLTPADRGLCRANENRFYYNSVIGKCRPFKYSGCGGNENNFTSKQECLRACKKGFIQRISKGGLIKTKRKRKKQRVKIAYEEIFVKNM
Protocol: (§1) The dPT assay used was a modified standard clinical PT assay (Nordfang et al. (1991) Thromb Haemost 66:464-467; Welsch et al. (1991) Thrombosis Research 64: 213-222). SIMPLASTIN EXCEL thromboplastin reagent (Organon Teknika) was reconstituted with the manufacturer's diluent and further diluted 1:100 in 0.9% saline. The thromboplastin reagent, 25 mM CaCl2, and plasma samples were pre-warmed to 37° C. before initiating the assay. 100 μl of thawed plasma was aliquoted into microcentrifuge tubes. […] 100 μl of the diluted thromboplastin reagent and 100 μl of 25 mM CaCl2 were added to fibrin cups (Fisher) prewarmed to 37° C. 100 μl of plasma (normal or hemophilic) containing the test agent or saline control was added to the fibrin cups containing the thromboplastin reagent and CaCl2 to initiate clotting. The time for plasma clotting was measured with a BBL FIBROSYSTEM fibrometer.
Experiments were repeated without a preincubation of the sulfated polysaccharides with TFPI prior to exposure to plasma. To extend the stringency of the test for NASP inhibition of TFPI activity, TFPI was added to the plasma before the NASP was added.

[2] = test system: Hem-A plasma containing 1.25% FACT plasma; assay: aPTT assay, NASPs in 1.25% FACT diluted in Hem-A plasma; assay type: biochemical, human; settings: for concentration producing approximately 50% prolongation in clotting time, fold higher than for heparin: APTT, Hem-A plasma
Protocol: Activated Partial Thromboplastin Time (aPTT) Assay The aPTT assay was performed as described previously with modifications (PDR Staff Physicians' Desk Reference. 2004, Anderson Lo, Barrowcliffe, T. W., Holmer, E., Johnson, E. A., Sims, G. E. C. Thromb. Res. 1976; 9:575-580). 25 mM CaCl2 and fibrin cups (Fisher) were pre-warmed to 37° C. 0.1 ml of thawed human plasma (normal or hemophilic) was added to warmed test tubes. 5 μl of saline (e.g. Sigma) or 5 μl of test agent (e.g., NASP) dissolved in saline was incubated with 95 μl of plasma for 30 minutes at room temperature. APTT reagent (e.g. Organon Teknika) was reconstituted in 3 ml distilled water and 0.1 ml of the reconstituted solution containing the APTT reagent was added to each test tube. 0.2 ml of plasma containing the test agent or saline control and aPTT reagent were transferred from test tubes to pre-warmed fibrin cups and incubated for 2-3 minutes. 0.1 ml of pre-warmed 25 mM CaCl2 was added to initiate clotting, and the time for plasma clotting was measured with a BBL FIBROSYSTEM fibrometer.
The effect of NASPs on the clotting time of plasma was determined as follows: 5 μl of a NASP was added to 95 μl of 1.25% FACT diluted in human Hem-A plasma and incubated at room temperature for 30 minutes. aPTT assays were performed to determine plasma clotting time as described in Example 1.

[3] = test system: Factor VII-deficient plasma; assay: dPT assay, Factor VII-deficient plasma in absence of exogenous TFPI; assay type: biochemical, human; settings: FVII-deficient plasma, no NASP + 0.1 nM FVIIa 173 seconds
Protocol: as §1
Regulation of clotting in Factor VII-deficient plasma was also evaluated in dPT assays. […] Addition of FVIIa to approximately 0.1 nM restored the clotting time to about 150 seconds (data not shown). Such a variation in clotting time shown in the dPT assay mimics some forms of human factor VII-deficiency. Titration of fucoidan and PPS into FVII-deficient plasma accelerated clotting times.

TFPI [4] = biological target: T1, TFPI; assay: dPT assay, inhibition of TFPI activity in Hem-A plasma, TFPI preincubated with NASP; assay type: biochemical; settings: Hem-A + TFPI, preincubation, plasma alone 44, + TFPI 151 seconds
Protocol: as §1
(§2) Inhibition of TFPI activity by NASPs was assessed in dPT clotting assays with normal or hemophilic plasma and added recombinant TFPI. Diluted recombinant TFPI was preincubated with NASPs for 5 minutes at room temperature before plasma was added. After addition of plasma, the mixture was incubated for an additional 25 minutes followed by dPT initiation.

Hem-A plasma = assay: dPT assay, Hem-A plasma in absence of exogenous TFPI; assay type: biochemical, human; settings: Hem-A, no exogenous TFPI, no NASP 69 seconds
Protocol: as §1
The ability of NASPs to accelerate clotting of factor-deficient plasma in the absence of TFPI supplementation was also tested in dPT assays. A procoagulant response, if observed, may be related to neutralization of endogenous TFPI activity, which is present in human plasma at approximately 100 ng/ml (Nordfang et al., supra), largely associated with lipoprotein or platelets (Broze et al. (1992) Semin. Hematol. 29:159-169; Broze et al. (2003) J. Thromb. Haemost. 1:1671-1675).
The ability of NASPs to accelerate clotting of Hem-A plasma in the absence of exogenous TFPI was tested. Fucoidan or PPS were titrated into Hem A plasma and dPT assays were performed. Additionally, the dose-response to factor VIIa was analyzed as a positive control for amplifying extrinsic pathway activation.

TFPI [5] = biological target: T1, TFPI; assay: dPT assay, inhibition of TFPI activity in Hem-B plasma, TFPI preincubated with NASP; assay type: biochemical; settings: Hem-B + TFPI, plasma alone 46, + TFPI 101 seconds
Protocol: as §1, §2
The acceleration of plasma clotting by the NASPs in the presence of TFPI was also tested in Hem-B and normal plasma.

Substance	clotting time, dPT (TFPI [1]; 0.8 nM)	clotting time, dPT (TFPI [1]; 4 nM)	clotting time, dPT (TFPI [1]; 20 nM)	clotting time, dPT (TFPI [1]; 100 nM)	clotting time, dPT (TFPI [1]; 500 nM)	clotting time, aPTT ([2]; 0.8 nM)	clotting time, aPTT ([2]; 4 nM)	clotting time, aPTT ([2]; 20 nM)	clotting time, aPTT ([2]; 100 nM)	concentration producing approximately 50% prolongation in clotting time, fold higher than for heparin [2]	clotting time, dPT ([3]; 0.8 nM)	clotting time, dPT ([3]; 4 nM)	clotting time, dPT ([3]; 20 nM)	clotting time, dPT ([3]; 100 nM)	clotting time, dPT ([3]; 500 nM)	clotting time, dPT (TFPI [4]; 0.16 nM)	clotting time, dPT (TFPI [4]; 0.8 nM)	clotting time, dPT (TFPI [4]; 4 nM)	clotting time, dPT (TFPI [4]; 20 nM)	clotting time, dPT (TFPI [4]; 100 nM)	also measured
Fucoidan	210 s	78 s	59 s	54 s	90 s	70 s	71 s	75 s	119 s	10 fold	168 s	147 s	120 s	74 s	111 s	130 s	108 s	72 s	54 s	46 s	concentration window for significant clotting acceleration (TFPI [1]; Hem A plasma + TFPI): greater than 100 fold; clotting time, aPTT ([2]; 0.16 nM): 71 s; clotting time, dPT (TFPI [4]; 500 nM): 75 s; clotting time, dPT (Hem-A plasma; 0.16 nM): 70 s; clotting time, dPT (Hem-A plasma; 0.8 nM): 68 s; clotting time, dPT (Hem-A plasma; 4 nM): 63 s; clotting time, dPT (Hem-A plasma; 20 nM): ~55 s; clotting time, dPT (Hem-A plasma; 100 nM): 56 s; clotting time, dPT (TFPI [5]; 0.16 nM): 108 s; clotting time, dPT (TFPI [5]; 0.8 nM): 95 s; clotting time, dPT (TFPI [5]; 4 nM): 80 s; clotting time, dPT (TFPI [5]; 20 nM): 54 s; clotting time, dPT (TFPI [5]; 100 nM): 50 s; clotting time, dPT (TFPI [5]; 500 nM): 60 s
Pentosan Polysulphate Sodium [PPS]	192 s	156 s	81 s	76 s	73 s	70 s	71 s	72 s	80 s	100 fold	198 s	181 s	159 s	142 s	113 s	158 s	111 s	91 s	55 s	57 s	clotting time, aPTT ([2]; 500 nM): 113 s; clotting time, dPT (TFPI [4]; 500 nM): 74 s; clotting time, dPT (Hem-A plasma; 0.16 nM): 69 s; clotting time, dPT (Hem-A plasma; 0.8 nM): 68 s; clotting time, dPT (Hem-A plasma; 4 nM): 66 s; clotting time, dPT (Hem-A plasma; 20 nM): 62 s; clotting time, dPT (Hem-A plasma; 100 nM): 60 s; clotting time, dPT (TFPI [5]; 0.16 nM): 106 s; clotting time, dPT (TFPI [5]; 0.8 nM): 90 s; clotting time, dPT (TFPI [5]; 4 nM): 82 s; clotting time, dPT (TFPI [5]; 20 nM): 65 s; clotting time, dPT (TFPI [5]; 100 nM): 52 s; clotting time, dPT (TFPI [5]; 500 nM): 56 s
